The source of these data is patent US20140018384A1, “QUINOLINONE DERIVATIVES FOR USE IN THE TREATMENT OF AN AUTOIMMUNE DISEASE AND/OR AN INFLAMMATORY DISEASE” (PRONOXIS AB, priority 2011, published 2014).

This assay deals with PLB-985 cells. The assay is described as follows: ROS production (isoluminol/HRP luminescence) in PLB-985 cells, Biological Example 1. In kind it is cell-based. On the procedure: To cells (HL-60 or PLB-985) in HBSS medium was added compound (25 or 50 μM), isoluminol and Horse Radish Peroxidase, fraction II. Luminescence was measured for 10-30 minutes and the area under the […] curve was divided by that from a control experiment to give the activity expressed as fold change.
Each assay indicated below was performed at a different site, at a different time, by different personnel and/or using different cell lines, concentrations and controls. The cell line, concentration of example compound and control used in respect of each assay were as indicated below. The values obtained from these different setups (each using an otherwise identical assay) are given as Activity A, B, C, D or E in Table 5 below. The values are expressed as fold increase of NADPH activity in the presence of the relevant of compound (as indicated below) compared to the relevant control (as indicated below).
Activity A: HL-60 cells; 50 μM compound vs. blank Activity B: PLB-985 cells; 25 μM compound vs. blank Activity C, D and E: PLB-985 cells; 25 μM compound vs. DMSO

Setting [1] is: 25 μM compound vs. blank, read-out: Activity B (fold increase of NADPH activity compared to control).
[2] abbreviates: 25 μM compound vs. DMSO, setup D, read-out: Activity D (fold increase of NADPH activity compared to control).
Setting [3] is: 25 μM compound vs. DMSO, setup C, read-out: Activity C (fold increase of NADPH activity compared to control).
Where [4] appears, read: 25 μM compound vs. DMSO, setup E, read-out: Activity E (fold increase of NADPH activity compared to control).

Where two headings read alike, the source gives them in different places.

On to `CCc1ccc(C(=O)c2cn(CC(=O)Nc3ccc(Cl)cc3)c3cc4c(cc3c2=O)OCO4)cc1` [Example 53, N-(4-Chlorophenyl)-2-[3-(4-ethylbenzoyl)-6,7-methylenedioxy-4-oxo-1-quinolinyl]acetamide], for which the fold induction at 25 µM under setting [1] amounted to 150.

As to `COc1ccc(NC(=O)Cn2cc(C(=O)c3ccc(F)cc3)c(=O)c3cc(OC)ccc32)cc1` [Example 107, N-p-Anisyl-2-[3-(4-fluorobenzoyl)-6-methoxy-4-oxo-1-quinolinyl]acetamide], the fold induction at 25 µM under setting [2] stood at 6.6.

Consider `COc1cc(NC(=O)Cn2cc(C(=O)c3ccc(Cl)cc3)c(=O)c3cc4c(cc32)OCO4)cc(OC)c1` [Example 56, 2-[3-(4-Chlorobenzoyl)-6,7-methylenedioxy-4-oxo-1-quinolinyl]-N-(3,5-dimethoxyphenyl)acetamide], for which the fold induction at 25 µM amounted to 4.4 under setting [3] and 6.4 under setting [1].

For the molecule `CCOc1ccc(NC(=O)Cn2cc(C(=O)c3ccc(C)cc3)c(=O)c3cc4c(cc32)OCO4)cc1` [Example 70, N-(4-Ethoxyphenyl)-2-(6,7-methylenedioxy-4-oxo-3-p-toluoyl-1-quinolinyl)acetamide], the fold induction at 25 µM runs as follows: under setting [3], 25.4; under setting [1], 33.2.

Regarding `O=C(Cn1cc(C(=O)c2ccc3ccccc3c2)c(=O)c2cc3c(cc21)OCO3)Nc1ccc(Cl)c(Cl)c1` [Example 7, N-(3,4-Dichlorophenyl)-2-[6,7-methylenedioxy-3-(2-naphthoyl)-4-oxo-1-quinolinyl]acetamide], the fold induction at 25 µM under setting [4] worked out at 2.2.

With `COc1ccc(NC(=O)Cn2cc(S(=O)(=O)c3ccccc3)c(=O)c3cc4c(cc32)OCO4)cc1` [Example 85, N-p-Anisyl-2-(3-benzenesulfonyl-6,7-methylenedioxy-4-oxo-1-quinolinyl)acetamide], the fold induction at 25 µM under setting [3] turned out to be 12.2.

Consider `CCOc1ccc(C(=O)c2cn(CC(=O)Nc3ccc(OC)cc3OC)c3cc4c(cc3c2=O)OCO4)cc1` [Example 65, N-(2,4-Dimethoxyphenyl)-2-[3-(4-ethoxybenzoyl)-6,7-methylenedioxy-4-oxo-1-quinolinyl]acetamide], for which the fold induction at 25 µM is, setting by setting: under setting [3], 2.8; under setting [1], 4.1.

For the molecule `COc1ccc2c(=O)c(C(=O)c3ccc4ccccc4c3)cn(CC(=O)Nc3ccc(Cl)cc3)c2c1` [Example 18, N-(4-Chlorophenyl)-2-[7-methoxy-3-(2-naphthoyl)-4-oxo-1-quinolinyl]acetamide], the fold induction at 25 µM under setting [2] is 12.6.

Turning to `O=C(Cn1cc(S(=O)(=O)c2ccc(F)cc2)c(=O)c2cc3c(cc21)OCO3)Nc1ccc(F)cc1` [Example 83, 2-[3-(4-Fluorobenzenesulfonyl)-6,7-methylenedioxy-4-oxo-1-quinolinyl]-N-(4-fluorophenyl)acetamide], the fold induction at 25 µM under setting [3] was 2.

As to `Cc1ccc(C(=O)c2cn(CC(=O)Nc3ccc(Cl)cc3)c3cc4c(cc3c2=O)OCO4)cc1C` [Example 50, N-(4-Chlorophenyl)-2-[3-(3,4-dimethylbenzoyl)-6,7-methylenedioxy-4-oxo-1-quinolinyl]acetamide], the fold induction at 25 µM reads like this: under setting [3], 62.8; under setting [1], 163.

Regarding `COc1ccc(NC(=O)Cn2cc(C(=O)c3ccc(F)cc3)c(=O)c3cc(Cl)ccc32)cc1` [Example 109, N-p-Anisyl-2-[6-chloro-3-(4-fluorobenzoyl)-4-oxo-1-quinolinyl]acetamide], the fold induction at 25 µM under setting [2] stood at 2.5.

As to `O=C(Cn1cc(C(=O)c2ccccc2)c(=O)c2cc3c(cc21)OCO3)Nc1ccc(Cl)cc1` [Example 48, 2-(3-Benzoyl-6,7-methylenedioxy-4-oxo-1-quinolinyl)-N-(4-chlorophenyl)acetamide], the fold induction at 25 µM by setting is: under setting [3], 42.5; under setting [1], 81.4.

As for `COc1ccc(NC(=O)Cn2cc(C(=O)c3ccc(C)c(C)c3)c(=O)c3cc4c(cc32)OCO4)cc1` [Example 47, N-p-Anisyl-2-[3-(3,4-dimethylbenzoyl)-6,7-methylenedioxy-4-oxo-1-quinolinyl]acetamide], the fold induction at 25 µM is, setting by setting: under setting [3], 58.4; under setting [1], 144.

For the molecule `COc1cc2c(=O)c(C(=O)c3ccc4ccccc4c3)cn(CC(=O)Nc3ccc(Cl)cc3)c2cc1C` [Example 19, N-(4-Chlorophenyl)-2-[6-methoxy-7-methyl-3-(2-naphthoyl)-4-oxo-1-quinolinyl]acetamide], under setting [2], the fold induction at 25 µM amounted to 10.9.

`COc1ccc(NC(=O)Cn2cc(C(=O)c3ccc(Cl)cc3)c(=O)c3cc4c(cc32)OCO4)cc1` [Example 90, N-p-Anisyl-2-[3-(4-chlorobenzoyl)-6,7-methylenedioxy-4-oxo-1-quinolinyl]acetamide]: the fold induction at 25 µM under setting [3] was determined as 37.6 and the fold induction at 25 µM under setting [1] turned out to be 40.9.

For the molecule `CCc1ccc(C(=O)c2cn(CC(=O)Nc3ccc4c(c3)OCO4)c3cc4c(cc3c2=O)OCO4)cc1` [Example 78, 2-[3-(4-Ethylbenzoyl)-6,7-methylenedioxy-4-oxo-1-quinolinyl]-N-(3,4-methylenedioxyphenyl)acetamide], the fold induction at 25 µM under setting [3] was determined as 11.6.

`CCc1ccc(NC(=O)Cn2cc(S(=O)(=O)c3ccccc3)c(=O)c3cc4c(cc32)OCO4)cc1` [Example 82, 2-(3-Benzenesulfonyl-6,7-methylenedioxy-4-oxo-1-quinolinyl)-N-(4-ethylphenyl)acetamide]: the fold induction at 25 µM under setting [3] was 5.9.

In the case of `COc1ccc(NC(=O)Cn2cc(C(=O)c3ccc(C)cc3)c(=O)c3cc4c(cc32)OCO4)cc1` [Example 46, N-p-Anisyl-2-(6,7-methylenedioxy-4-oxo-3-p-toluoyl-1-quinolinyl)acetamide], the fold induction at 25 µM was 40.7 under setting [3] and 127 under setting [1].

As for `COc1ccc(NC(=O)Cn2cc(C(=O)c3ccc(F)cc3)c(=O)c3cc(OC)c(OC)cc32)cc1` [Example 105, N-p-Anisyl-2-[6,7-dimethoxy-3-(4-fluorobenzoyl)-4-oxo-1-quinolinyl]acetamide], under setting [2], the fold induction at 25 µM came to 2.

As to `O=C(Cn1cc(C(=O)c2ccc(F)cc2)c(=O)c2cc3c(cc21)OCO3)Nc1ccc(Cl)cn1` [Example 33, N-(5-Chloro-2-pyridyl)-2-[3-(4-fluorobenzoyl)-6,7-methylenedioxy-4-oxo-1-quinolinyl]acetamide], the fold induction at 25 µM under setting [3] amounted to 45.6.

As to `COc1ccc(NC(=O)Cn2cc(C(=O)c3ccc(F)cc3)c(=O)c3cc4c(cc32)OCO4)cc1` [Example 54, N-p-Anisyl-2-[(4-fluorobenzoyl)-6,7-methylenedioxy-4-oxo-1-quinolinyl]acetamide], the fold induction at 25 µM under setting [3] was 61.5, the fold induction at 25 µM under setting [2] amounted to 13.5 and the fold induction at 25 µM under setting [1] turned out to be 74.2.

`COc1cc2c(cn1)c(=O)c(C(=O)c1ccc3ccccc3c1)cn2CC(=O)Nc1ccc(Cl)cc1` [Example 23, N-(4-Chlorophenyl)-2-[7-methoxy-3-(2-naphthoyl)-4-oxo-(1,6-naphthyridin-1-yl)]-acetamide]: the fold induction at 25 µM under setting [4] amounted to 2.1.

As for `COc1cccc(NC(=O)Cn2cc(C(=O)c3ccc4ccccc4c3)c(=O)c3cc4c(cc32)OCO4)c1` [Example 3, N-m-Anisyl-2-[6,7-methylenedioxy-3-(2-naphthoyl)-4-oxo-1-quinolinyl]acetamide], the fold induction at 25 µM under setting [4] was determined as 1.8.

For the molecule `COc1ccc(NC(=O)Cn2cc(C(=O)c3ccccc3)c(=O)c3cc4c(cc32)OCO4)cc1` [Example 87, N-p-Anisyl-2-(3-benzoyl-6,7-methylenedioxy-4-oxo-1-quinolinyl)acetamide], the fold induction at 25 µM under setting [3] is 27.2.
